Reference: patent publication US20180128830A1, “DETECTION OF HUMAN CYTOMEGALOVIRUS IN BREAST CANCER” (priority 2015, published 2018)
Several values for one entry are separate records, joined by “and”; a condition that tells them apart may be missing. Equal values may be shown once.

What was measured:
[1] = test system: MDA-MB-231 cells; assay: Transcriptional profiling, Human Tumor Metastasis RT2 Profiler PCR Array; assay type: cell-based; settings: 100 ng/mL, 5 hrs
Procedure: RNA was harvested from 10×10^6 MDA-MB-231 cells that were mock treated or treated with 100 ng/mL cmvIL-10 or hIL-10 for 5 hrs using the RNeasy Midi Kit and RNAse-Free DNase set (Qiagen, Valencia, Calif.). From the isolated RNA, cDNA was prepared using the RT^2 First Strand Kit (SA Biosciences, Frederick, Md.) and subsequently loaded into a 96-well breast cancer metastasis profiler PCR array (PAHS-028ZD) with system RT^2 SYBR Green Mastermix (SA Biosciences). The plates were run using the CFX96 Real-Time system cycler (BioRad, Hercules, Calif.) with the following amplification program: 95° C. for 10 min, 95° C. for […] with a slow ramp rate for 1.0 c/sec and 60° C. for 1 min. The data from three biological replicates for each treatment was analyzed by the ΔΔCT method according to manufacturer's instructions using the RT^2 profiler PCR array data analysis program located on the SABiosciences web portal and is reported as fold change relative to control.

[2] = test system: Stat3; assay: Western blot for Stat3 phosphorylation in MDA-MB-231 cells; assay type: cell-based, human; settings: 100 ng/ml, 15 min
Procedure: For western blotting, cells were treated with 100 ng/ml cmvIL-10, hIL-10, IFNγ or PBS for 15 min, then harvested into cell lysis buffer (150 mM NaCl, 20 mM HEPES, 0.5% Triton-X-100, 1 mM NaOV4, 1 mM EDTA, 0.1% NaN3). Lysates were clarified, proteins were separated via SDS-PAGE, and then transferred to a nitrocellulose membrane. Then membrane was incubated in blocking solution (5% milk+1×TBS-T) for 1 hr, then probed with primary antibody at a 1:1000 dilution (total Stat3 or pStat3, total Stat1 or pStat1) in blocking solution overnight at 4° C. After washing, the membranes were incubated with a 1:2000 dilution of appropriate AP-conjugated secondary antibody and bands were detected using Western Blue stabilized AP substrate (Promega, Madison, Wis.). For analysis of secreted proteins, supernatants were collected at various time points, analyzed by SDS-PAGE and then immunoblotted as above for cmvIL-10, hIL-10, or serpin E1/PAI.

[3] = test system: MDA-MB-231 cells; assay: Standard cell counts (hemacytometer); assay type: cell-based, human; settings: 100 ng/ml, 6-well dishes
Procedure: Cells were seeded into 96-well dishes at a density of 1×10^4 cell per well in complete medium with varying doses of cmvIL-10, and then cell viability measured at the indicated time points using the Cell Titer Glo Assay kit according to manufacturer's instructions (Promega). DNA synthesis was measured in cells prepared in the same way using the BrdU Cell Proliferation ELISA Kit (Roche, Basel, Switzerland). For experiments using inhibitors, cells were cultivated in 96-well dishes as above with a final concentration of 10 μM inhibitor and BrdU incorporation evaluated after 72 hrs. For cell counts, cells were seeded into 6-well plates at a density of 2×10^5 cells per well, harvested via trypsinization, and counted using a hemacytometer at the indicated time points. The TACS Annexin V-FITC Detection Kit (Trevigen, Gaithersburg, Md.) was used to stain cells harvested from 70% confluent T75 flasks that had been treated with 100 μM etoposide for 48 hrs in the presence or absence of 100 ng/ml cmvIL-10. Cells were then analyzed via flow cytometry to detect fluorescence. For viability assays, Cell Titer Glo reagent was utilized to quantify cells that had been seeded into 96-well dishes at a density of 1×10^4 cell per well in complete medium with varying doses of etoposide in the presence or absence of 100 ng/ml cmvIL-10 as indicated

hIL-10: purified recombinant human interleukin-10 from R&D Systems
Fold Change vs. Mock, ACTB ([1]; ACTB mRNA): 1.3287 fold
Fold Change vs. Mock, APC ([1]; APC mRNA): 1.0052 fold
Fold Change vs. Mock, B2M ([1]; B2M mRNA): 0.9897 fold
Fold Change vs. Mock, BRMS1 ([1]; BRMS1 mRNA): 1.1154 fold
Fold Change vs. Mock, CCL7 ([1]; CCL7 mRNA): 0.9314 fold
Fold Change vs. Mock, CD44 ([1]; CD44 mRNA): 1.3402 fold
Fold Change vs. Mock, CD82 ([1]; CD82 mRNA): 1.1019 fold
Fold Change vs. Mock, CDH1 ([1]; CDH1 mRNA): 0.7618 fold
Fold Change vs. Mock, CDH6 ([1]; CDH6 mRNA): 0.9314 fold
Fold Change vs. Mock, CDH11 ([1]; CDH11 mRNA): 1.0425 fold
Fold Change vs. Mock, CDKN2A ([1]; CDKN2A mRNA): 0.9314 fold
Fold Change vs. Mock, CHD4 ([1]; CHD4 mRNA): 1.1115 fold
Fold Change vs. Mock, COL4A2 ([1]; COL4A2 mRNA): 1.51 fold and 1.5131 fold
Fold Change vs. Mock, CST7 ([1]; CST7 mRNA): 0.8858 fold
Fold Change vs. Mock, CTBP1 ([1]; CTBP1 mRNA): 0.9576 fold
Fold Change vs. Mock, CTNNA1 ([1]; CTNNA1 mRNA): 0.9428 fold
Fold Change vs. Mock, CTSK ([1]; CTSK mRNA): 0.8482 fold
Fold Change vs. Mock, CTSL1 ([1]; CTSL1 mRNA): 0.8981 fold
Fold Change vs. Mock, CXCL12 ([1]; CXCL12 mRNA): 0.9314 fold
Fold Change vs. Mock, CXCR4 ([1]; CXCR4 mRNA): 0.8751 fold
Fold Change vs. Mock, DENR ([1]; DENR mRNA): 0.9626 fold
Fold Change vs. Mock, EPHB2 ([1]; EPHB2 mRNA): 0.9028 fold
Fold Change vs. Mock, ETV4 ([1]; ETV4 mRNA): 1.0175 fold
Fold Change vs. Mock, EWSR1 ([1]; EWSR1 mRNA): 1.3104 fold
Fold Change vs. Mock, FAT1 ([1]; FAT1 mRNA): 1.4414 fold
Fold Change vs. Mock, FGFR4 ([1]; FGFR4 mRNA): 0.9693 fold
Fold Change vs. Mock, FLT4 ([1]; FLT4 mRNA): 1.0317 fold
Fold Change vs. Mock, FN1 ([1]; FN1 mRNA): 1.2100 fold
Fold Change vs. Mock, FXYD5 ([1]; FXYD5 mRNA): 1.0479 fold
Fold Change vs. Mock, GAPDH ([1]; GAPDH mRNA): 1.2121 fold
Fold Change vs. Mock, GNRH1 ([1]; GNRH1 mRNA): 1.1647 fold
Fold Change vs. Mock, HGF ([1]; HGF mRNA): 0.9314 fold
Fold Change vs. Mock, HPRT1 ([1]; HPRT1 mRNA): 1.3827 fold
Fold Change vs. Mock, HPSE ([1]; HPSE mRNA): 0.8645 fold
Fold Change vs. Mock, HRAS ([1]; HRAS mRNA): 1.0625 fold
Fold Change vs. Mock, HTATIP2 ([1]; HTATIP2 mRNA): 0.9138 fold
Fold Change vs. Mock, IGF1 ([1]; IGF1 mRNA): 0.9794 fold
Fold Change vs. Mock, IL1B ([1]; IL1B mRNA): 0.6771 fold
Fold Change vs. Mock, IL18 ([1]; IL18 mRNA): 0.7526 fold
Fold Change vs. Mock, ITGA7 ([1]; ITGA7 mRNA): 0.8796 fold
Fold Change vs. Mock, ITGB3 ([1]; ITGB3 mRNA): 1.0317 fold
Fold Change vs. Mock, KISS1R ([1]; KISS1R mRNA): 0.9314 fold
Fold Change vs. Mock, KISS1 ([1]; KISS1 mRNA): 1.5856 fold
Fold Change vs. Mock, KRAS ([1]; KRAS mRNA): 0.9931 fold
Fold Change vs. Mock, MCAM ([1]; MCAM mRNA): 1.0353 fold
Fold Change vs. Mock, MDM2 ([1]; MDM2 mRNA): 0.9461 fold
Fold Change vs. Mock, MET ([1]; MET mRNA): 1.1173 fold
Fold Change vs. Mock, METAP2 ([1]; METAP2 mRNA): 1.0736 fold
Fold Change vs. Mock, MGAT5 ([1]; MGAT5 mRNA): 1.3590 fold
Fold Change vs. Mock, MMP2 ([1]; MMP2 mRNA): 1.5157 fold
Fold Change vs. Mock, MMP3 ([1]; MMP3 mRNA): 0.8080 fold
Fold Change vs. Mock, MMP7 ([1]; MMP7 mRNA): 0.8123 fold
Fold Change vs. Mock, MMP9 ([1]; MMP9 mRNA): 0.9347 fold
Fold Change vs. Mock, MMP10 ([1]; MMP10 mRNA): 0.6866 fold
Fold Change vs. Mock, MMP11 ([1]; MMP11 mRNA): 1.0867 fold
Fold Change vs. Mock, MMP13 ([1]; MMP13 mRNA): 0.9777 fold
Fold Change vs. Mock, MTA1 ([1]; MTA1 mRNA): 0.9395 fold
Fold Change vs. Mock, MTSS1 ([1]; MTSS1 mRNA): 1.2397 fold
Fold Change vs. Mock, MYC ([1]; MYC mRNA): 0.7423 fold
Fold Change vs. Mock, MYCL1 ([1]; MYCL1 mRNA): 1.0644 fold
Fold Change vs. Mock, NF2 ([1]; NF2 mRNA): 1.3496 fold
Fold Change vs. Mock, NME1 ([1]; NME1 mRNA): 1.1000 fold
Fold Change vs. Mock, NME4 ([1]; NME4 mRNA): 0.9965 fold
Fold Change vs. Mock, NR4A3 ([1]; NR4A3 mRNA): 0.8151 fold
Fold Change vs. Mock, PLAUR ([1]; PLAUR (uPAR) mRNA): 1.87 fold and 1.8628 fold
Fold Change vs. Mock, PNN ([1]; PNN mRNA): 1.2901 fold
Fold Change vs. Mock, PTEN ([1]; PTEN mRNA): 0.8645 fold
Fold Change vs. Mock, RB1 ([1]; RB1 mRNA): 0.9298 fold
Fold Change vs. Mock, RORB ([1]; RORB mRNA): 0.8827 fold
Fold Change vs. Mock, RPLP0 ([1]; RPLP0 mRNA): 1.0000 fold
Fold Change vs. Mock, RPSA ([1]; RPSA mRNA): 1.0886 fold
Fold Change vs. Mock, SERPINE1 ([1]; SERPINE1 (PAI-1) mRNA): 3.12 fold and 3.0262 fold
Fold Change vs. Mock, SET ([1]; SET mRNA): 0.9234 fold
Fold Change vs. Mock, SMAD2 ([1]; SMAD2 mRNA): 0.7859 fold
Fold Change vs. Mock, SMAD4 ([1]; SMAD4 mRNA): 0.8279 fold
Fold Change vs. Mock, SRC ([1]; SRC mRNA): 0.9760 fold
Fold Change vs. Mock, SSTR2 ([1]; SSTR2 mRNA): 0.7120 fold
Fold Change vs. Mock, SYK ([1]; SYK mRNA): 0.9314 fold
Fold Change vs. Mock, TCF20 ([1]; TCF20 mRNA): 0.9676 fold
Fold Change vs. Mock, TGEB1 ([1]; TGEB1 (Transforming growth factor, beta 1) mRNA): 0.9931 fold
Fold Change vs. Mock, TIMP2 ([1]; TIMP2 mRNA): 0.8601 fold
Fold Change vs. Mock, TIMP3 ([1]; TIMP3 mRNA): 0.7631 fold
Fold Change vs. Mock, TIMP4 ([1]; TIMP4 mRNA): 0.9122 fold
Fold Change vs. Mock, TNFSF10 ([1]; TNFSF10 mRNA): 0.7955 fold
Fold Change vs. Mock, TP53 ([1]; TP53 mRNA): 0.8873 fold
Fold Change vs. Mock, TRPM1 ([1]; TRPM1 mRNA): 0.9314 fold
Fold Change vs. Mock, TSHR ([1]; TSHR mRNA): 0.9314 fold
Fold Change vs. Mock, VEGFA ([1]; VEGFA mRNA): 0.5987 fold
VEGFA fold change expressed as negative fold (down-regulation) ([1]; VEGFA mRNA): 1.67 fold
83 kD band of phosphorylated Stat3 (pStat3) [2]: detected
cell numbers [3]: higher cell numbers than control cultures
